Results published in publication PMC8333425, “Discovery of a dual Ras and ARF6 inhibitor from a GPCR endocytosis screen” (Nature Communications, 2021).

Assays:
Experiment in all cases: KINOMEscan kinase binding assay
[1] = target: T1, 384 kinases from the human genome (Homo sapiens, UniProt P54756); settings: kinase EPHA5 (Entrez EPHA5)
T1 construct: purchased Eurofin/DiscoverX
Procedure, shortened: (§1)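 A panel of 384 human kinases was profiled by KINOMEscan binding in the presence of 10 µM compound. Kinase–ligand binding was given as percent of DMSO control, averaged from duplicates in a single run, with an S(10) selectivity score.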

[2] = target: T2, 384 kinases from the human genome (Homo sapiens, UniProt P0C264); settings: kinase SgK110 (Entrez SgK110)
T2 construct: purchased Eurofin/DiscoverX
Procedure, shortened: as §1

[3] = target: T3, 384 kinases from the human genome (Homo sapiens, UniProt Q9Y2H9); settings: kinase MAST1 (Entrez MAST1)
T3 construct: purchased Eurofin/DiscoverX
Procedure, shortened: as §1

[4] = target: T4, 384 kinases from the human genome (Homo sapiens, UniProt P49137); settings: kinase MAPKAPK2 (Entrez MAPKAPK2)
T4 construct: purchased Eurofin/DiscoverX
Procedure, shortened: as §1

[5] = target: T5, 384 kinases from the human genome (Homo sapiens, UniProt Q00535); settings: kinase CDK5 (Entrez CDK5)
T5 construct: purchased Eurofin/DiscoverX
Procedure, shortened: as §1

[6] = target: T6, 384 kinases from the human genome (Homo sapiens, UniProt P49840); settings: kinase GSK3A (Entrez GSK3A)
T6 construct: purchased Eurofin/DiscoverX
Procedure, shortened: as §1

[7] = target: T7, 384 kinases from the human genome (Homo sapiens, UniProt P29323); settings: kinase EPHB2 (Entrez EPHB2)
T7 construct: purchased Eurofin/DiscoverX
Procedure, shortened: as §1

[8] = target: T8, 384 kinases from the human genome (Homo sapiens, UniProt O15530); settings: kinase PDPK1 (Entrez PDPK1)
T8 construct: purchased Eurofin/DiscoverX
Procedure, shortened: as §1

[9] = target: T9, 384 kinases from the human genome (Homo sapiens, UniProt P06213); settings: kinase INSR (Entrez INSR)
T9 construct: purchased Eurofin/DiscoverX
Procedure, shortened: as §1

[10] = target: T10, 384 kinases from the human genome (Homo sapiens, UniProt P22455); settings: kinase FGFR4 (Entrez FGFR4)
T10 construct: purchased Eurofin/DiscoverX
Procedure, shortened: as §1

[11] = target: T11, 384 kinases from the human genome (Homo sapiens, UniProt P53779); settings: kinase JNK3 (Entrez MAPK10)
T11 construct: purchased Eurofin/DiscoverX
Procedure, shortened: as §1

[12] = target: T12, 384 kinases from the human genome (Homo sapiens, UniProt P49841); settings: kinase GSK3B (Entrez GSK3B)
T12 construct: purchased Eurofin/DiscoverX
Procedure, shortened: as §1

[13] = target: T13, 384 kinases from the human genome (Homo sapiens, UniProt P57059); settings: kinase SIK (Entrez SIK1)
T13 construct: purchased Eurofin/DiscoverX
Procedure, shortened: as §1

[14] = target: T14, 384 kinases from the human genome (Homo sapiens, UniProt Q14289); settings: kinase PYK2 (Entrez PTK2B)
T14 construct: purchased Eurofin/DiscoverX
Procedure, shortened: as §1

[15] = target: T15, 384 kinases from the human genome (Homo sapiens, UniProt Q9NYY3); settings: kinase PLK2 (Entrez PLK2)
T15 construct: purchased Eurofin/DiscoverX
Procedure, shortened: as §1

[16] = target: T16, 384 kinases from the human genome (Homo sapiens, UniProt P07949); settings: kinase RET (Entrez RET)
T16 construct: purchased Eurofin/DiscoverX
Procedure, shortened: as §1

[17] = target: T17, 384 kinases from the human genome (Homo sapiens, UniProt P49760); settings: kinase CLK2 (Entrez CLK2)
T17 construct: purchased Eurofin/DiscoverX
Procedure, shortened: as §1

[18] = target: T18, 384 kinases from the human genome (Homo sapiens, UniProt P54762); settings: kinase EPHB1 (Entrez EPHB1)
T18 construct: purchased Eurofin/DiscoverX
Procedure, shortened: as §1

[19] = target: T19, 384 kinases from the human genome (Homo sapiens, UniProt Q00537); settings: kinase PCTK2 (Entrez CDK17)
T19 construct: purchased Eurofin/DiscoverX
Procedure, shortened: as §1

[20] = target: T20, 384 kinases from the human genome (Homo sapiens, UniProt Q8NE63); settings: kinase HIPK4 (Entrez HIPK4)
T20 construct: purchased Eurofin/DiscoverX
Procedure, shortened: as §1

[21] = target: T21, 384 kinases from the human genome (Homo sapiens, UniProt O15197); settings: kinase EPHB6 (Entrez EPHB6)
T21 construct: purchased Eurofin/DiscoverX
Procedure, shortened: as §1

[22] = target: T22, 384 kinases from the human genome (Homo sapiens, UniProt P42338); settings: kinase PIK3CB (Entrez PIK3CB)
T22 construct: purchased Eurofin/DiscoverX
Procedure, shortened: as §1

[23] = target: T23, 384 kinases from the human genome (Homo sapiens, UniProt P53778); settings: kinase p38-gamma (Entrez MAPK12)
T23 construct: purchased Eurofin/DiscoverX
Procedure, shortened: as §1

[24] = target: T24, 384 kinases from the human genome (Homo sapiens, UniProt P68400); settings: kinase CSNK2A1 (Entrez CSNK2A1)
T24 construct: purchased Eurofin/DiscoverX
Procedure, shortened: as §1

[25] = target: T25, 384 kinases from the human genome (Homo sapiens, UniProt P50750); settings: kinase CDK9 (Entrez CDK9)
T25 construct: purchased Eurofin/DiscoverX
Procedure, shortened: as §1

[26] = target: T26, 384 kinases from the human genome (Homo sapiens, UniProt P53355); settings: kinase DAPK1 (Entrez DAPK1)
T26 construct: purchased Eurofin/DiscoverX
Procedure, shortened: as §1

T2 sequence (P0C264 whole entry): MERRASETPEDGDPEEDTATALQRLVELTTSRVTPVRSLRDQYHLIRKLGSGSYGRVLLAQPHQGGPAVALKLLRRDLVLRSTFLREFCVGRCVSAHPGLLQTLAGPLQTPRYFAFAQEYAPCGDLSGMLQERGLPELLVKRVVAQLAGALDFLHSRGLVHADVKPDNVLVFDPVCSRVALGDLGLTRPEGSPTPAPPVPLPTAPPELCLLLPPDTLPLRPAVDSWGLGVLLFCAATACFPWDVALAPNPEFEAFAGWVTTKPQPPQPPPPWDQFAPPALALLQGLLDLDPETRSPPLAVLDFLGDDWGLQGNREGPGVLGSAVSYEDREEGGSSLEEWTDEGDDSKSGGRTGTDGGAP
T5 sequence (Q00535 whole entry): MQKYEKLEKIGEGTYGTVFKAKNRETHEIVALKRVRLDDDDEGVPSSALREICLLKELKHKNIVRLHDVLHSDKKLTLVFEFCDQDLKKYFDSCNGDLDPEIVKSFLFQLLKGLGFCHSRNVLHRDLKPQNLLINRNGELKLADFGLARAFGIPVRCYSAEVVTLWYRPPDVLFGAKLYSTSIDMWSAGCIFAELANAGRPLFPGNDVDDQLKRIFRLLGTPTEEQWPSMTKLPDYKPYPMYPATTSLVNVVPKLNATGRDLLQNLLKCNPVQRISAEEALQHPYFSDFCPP
T11 sequence (P53779 whole entry): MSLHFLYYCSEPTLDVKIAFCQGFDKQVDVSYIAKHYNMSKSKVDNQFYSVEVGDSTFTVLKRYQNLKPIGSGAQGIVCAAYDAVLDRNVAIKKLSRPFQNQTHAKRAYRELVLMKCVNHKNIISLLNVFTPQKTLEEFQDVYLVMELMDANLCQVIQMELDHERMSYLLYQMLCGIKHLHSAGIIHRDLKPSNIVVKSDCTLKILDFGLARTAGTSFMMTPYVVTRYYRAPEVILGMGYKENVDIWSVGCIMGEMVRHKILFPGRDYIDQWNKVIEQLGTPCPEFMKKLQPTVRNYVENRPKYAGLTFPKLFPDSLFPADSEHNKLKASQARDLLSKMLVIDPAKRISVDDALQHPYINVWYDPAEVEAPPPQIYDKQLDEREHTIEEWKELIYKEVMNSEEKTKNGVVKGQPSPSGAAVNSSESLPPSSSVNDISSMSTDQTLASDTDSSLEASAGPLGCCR
T14 sequence (Q14289 whole entry): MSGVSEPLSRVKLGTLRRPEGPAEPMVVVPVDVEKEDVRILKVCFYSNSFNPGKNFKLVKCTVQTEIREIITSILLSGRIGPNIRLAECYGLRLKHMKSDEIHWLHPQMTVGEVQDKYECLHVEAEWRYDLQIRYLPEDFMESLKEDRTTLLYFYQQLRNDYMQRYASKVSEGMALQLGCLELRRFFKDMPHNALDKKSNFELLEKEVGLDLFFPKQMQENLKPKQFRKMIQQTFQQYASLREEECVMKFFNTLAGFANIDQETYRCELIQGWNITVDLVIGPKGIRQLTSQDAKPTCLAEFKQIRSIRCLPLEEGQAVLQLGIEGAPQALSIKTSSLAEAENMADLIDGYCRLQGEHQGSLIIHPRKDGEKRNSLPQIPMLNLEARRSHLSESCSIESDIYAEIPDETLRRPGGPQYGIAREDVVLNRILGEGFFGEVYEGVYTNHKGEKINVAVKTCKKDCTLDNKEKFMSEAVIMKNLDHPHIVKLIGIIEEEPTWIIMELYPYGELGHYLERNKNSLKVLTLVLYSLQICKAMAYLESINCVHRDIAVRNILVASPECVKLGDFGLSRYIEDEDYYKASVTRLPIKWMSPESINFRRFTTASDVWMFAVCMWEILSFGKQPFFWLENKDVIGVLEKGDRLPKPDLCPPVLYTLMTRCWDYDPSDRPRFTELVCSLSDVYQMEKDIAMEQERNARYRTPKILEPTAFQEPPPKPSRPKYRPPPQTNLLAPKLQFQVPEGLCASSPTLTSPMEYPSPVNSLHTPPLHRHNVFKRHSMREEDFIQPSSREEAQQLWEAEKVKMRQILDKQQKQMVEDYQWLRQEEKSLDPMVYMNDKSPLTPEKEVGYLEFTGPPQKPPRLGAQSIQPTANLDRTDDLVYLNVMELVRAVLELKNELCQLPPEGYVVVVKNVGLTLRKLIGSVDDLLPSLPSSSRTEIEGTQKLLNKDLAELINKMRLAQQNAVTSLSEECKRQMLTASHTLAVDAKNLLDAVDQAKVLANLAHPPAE
T9 sequence (P06213 28-1382): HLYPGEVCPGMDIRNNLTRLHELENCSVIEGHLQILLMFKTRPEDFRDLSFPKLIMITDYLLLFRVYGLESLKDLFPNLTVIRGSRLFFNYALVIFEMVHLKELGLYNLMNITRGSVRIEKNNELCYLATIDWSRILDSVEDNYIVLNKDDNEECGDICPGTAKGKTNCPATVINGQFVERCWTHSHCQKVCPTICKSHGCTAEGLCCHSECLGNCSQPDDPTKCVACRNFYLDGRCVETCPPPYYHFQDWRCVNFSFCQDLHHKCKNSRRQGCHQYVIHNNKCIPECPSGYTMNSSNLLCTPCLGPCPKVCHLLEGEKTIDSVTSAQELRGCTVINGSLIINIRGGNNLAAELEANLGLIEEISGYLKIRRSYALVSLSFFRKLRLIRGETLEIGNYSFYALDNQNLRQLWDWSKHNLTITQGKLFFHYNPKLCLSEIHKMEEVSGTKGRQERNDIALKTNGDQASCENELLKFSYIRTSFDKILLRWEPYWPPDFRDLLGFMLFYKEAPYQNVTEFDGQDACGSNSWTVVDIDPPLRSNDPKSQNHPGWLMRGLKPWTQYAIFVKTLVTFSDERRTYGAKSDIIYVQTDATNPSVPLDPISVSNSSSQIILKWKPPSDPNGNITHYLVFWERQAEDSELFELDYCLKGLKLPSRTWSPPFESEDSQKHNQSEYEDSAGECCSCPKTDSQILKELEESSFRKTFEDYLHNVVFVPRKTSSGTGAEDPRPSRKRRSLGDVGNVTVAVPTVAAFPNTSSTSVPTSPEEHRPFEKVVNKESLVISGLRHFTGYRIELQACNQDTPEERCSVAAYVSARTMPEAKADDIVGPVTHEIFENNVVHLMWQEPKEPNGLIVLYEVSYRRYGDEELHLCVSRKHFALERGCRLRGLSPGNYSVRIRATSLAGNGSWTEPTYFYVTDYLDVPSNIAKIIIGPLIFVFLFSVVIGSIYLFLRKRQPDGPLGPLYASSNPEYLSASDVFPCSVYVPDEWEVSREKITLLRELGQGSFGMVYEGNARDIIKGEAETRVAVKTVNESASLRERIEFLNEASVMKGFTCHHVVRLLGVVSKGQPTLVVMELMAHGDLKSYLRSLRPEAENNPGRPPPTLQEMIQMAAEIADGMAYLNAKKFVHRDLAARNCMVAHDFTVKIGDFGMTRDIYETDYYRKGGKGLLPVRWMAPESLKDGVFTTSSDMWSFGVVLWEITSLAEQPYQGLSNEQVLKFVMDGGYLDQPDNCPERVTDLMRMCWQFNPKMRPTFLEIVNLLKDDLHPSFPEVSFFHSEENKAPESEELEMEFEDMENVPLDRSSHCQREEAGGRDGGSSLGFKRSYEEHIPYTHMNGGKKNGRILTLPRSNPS
T26 sequence (P53355 whole entry): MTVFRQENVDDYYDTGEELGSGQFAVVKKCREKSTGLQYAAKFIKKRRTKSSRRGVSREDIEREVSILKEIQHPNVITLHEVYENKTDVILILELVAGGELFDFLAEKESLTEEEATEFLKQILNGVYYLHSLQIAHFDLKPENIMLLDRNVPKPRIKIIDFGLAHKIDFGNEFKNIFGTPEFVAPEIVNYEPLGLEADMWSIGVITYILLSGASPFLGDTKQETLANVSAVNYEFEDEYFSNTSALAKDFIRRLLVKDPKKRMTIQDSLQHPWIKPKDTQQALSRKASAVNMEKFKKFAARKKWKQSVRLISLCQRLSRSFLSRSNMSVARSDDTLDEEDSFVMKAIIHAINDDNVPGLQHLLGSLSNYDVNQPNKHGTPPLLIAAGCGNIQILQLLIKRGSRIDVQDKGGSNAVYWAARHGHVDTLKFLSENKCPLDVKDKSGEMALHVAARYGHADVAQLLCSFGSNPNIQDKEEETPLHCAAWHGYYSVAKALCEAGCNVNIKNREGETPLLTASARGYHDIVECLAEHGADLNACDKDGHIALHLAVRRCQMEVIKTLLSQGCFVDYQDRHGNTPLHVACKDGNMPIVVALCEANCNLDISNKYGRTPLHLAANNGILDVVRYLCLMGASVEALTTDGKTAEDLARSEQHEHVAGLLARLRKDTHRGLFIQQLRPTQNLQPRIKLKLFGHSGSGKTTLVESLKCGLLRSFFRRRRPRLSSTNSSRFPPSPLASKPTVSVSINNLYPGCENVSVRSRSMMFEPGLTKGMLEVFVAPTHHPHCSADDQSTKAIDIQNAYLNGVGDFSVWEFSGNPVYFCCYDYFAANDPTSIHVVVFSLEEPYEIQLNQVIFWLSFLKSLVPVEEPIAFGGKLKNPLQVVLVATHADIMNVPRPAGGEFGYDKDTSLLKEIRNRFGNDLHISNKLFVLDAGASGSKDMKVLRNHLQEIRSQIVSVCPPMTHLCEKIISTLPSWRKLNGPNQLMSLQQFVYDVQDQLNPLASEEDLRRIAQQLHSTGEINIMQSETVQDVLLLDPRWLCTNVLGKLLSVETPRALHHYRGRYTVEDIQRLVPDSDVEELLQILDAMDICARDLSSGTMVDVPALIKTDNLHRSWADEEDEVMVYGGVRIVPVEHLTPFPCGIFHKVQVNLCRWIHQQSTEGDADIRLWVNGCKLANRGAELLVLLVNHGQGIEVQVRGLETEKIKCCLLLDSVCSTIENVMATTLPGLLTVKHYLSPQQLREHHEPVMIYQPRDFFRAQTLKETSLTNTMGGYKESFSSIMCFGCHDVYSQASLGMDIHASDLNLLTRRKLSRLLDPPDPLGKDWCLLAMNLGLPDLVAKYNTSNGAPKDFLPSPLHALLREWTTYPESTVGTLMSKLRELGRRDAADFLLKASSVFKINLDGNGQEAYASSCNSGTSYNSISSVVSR

CC(C)C(=O)N1CCN(c2ccc(NC(=O)c3cc4ccccc4o3)cc2Cl)CC1 [Compound 21]
Percent Control [1]: 100% | Percent Control [2]: 79% | Percent Control [3]: 100% | Percent Control [4]: 100% | Percent Control [5]: 94% | Percent Control [6]: 92% | Percent Control [7]: 94% | Percent Control [8]: 97% | Percent Control [9]: 82% | Percent Control [10]: 91% | Percent Control [11]: 75% | Percent Control [12]: 99% | Percent Control [13]: 94% | Percent Control [14]: 96% | Percent Control [15]: 90% | Percent Control [16]: 83% | Percent Control [17]: 100% | Percent Control [18]: 94% | Percent Control [19]: 99% | Percent Control [20]: 100% | Percent Control [21]: 98% | Percent Control [22]: 99% | Percent Control [23]: 100% | Percent Control [24]: 100% | Percent Control [25]: 99% | Percent Control [26]: 90%
